Measurements: article PMC6917776, “Discovery of a chemical probe for PRDM9” (Nature Communications, 2019)

Tested on: H3K4me3 at known PRDM9 binding loci and control TSS loci
Assay: ChIP-qPCR of H3K4me3 in PRDM9-transfected HEK293T cells
Assay type: cell-based, human
Settings: for H3K4me3 ChIP-qPCR 2^-dCq (IP-Input) / 2^-dCq (H3K4me3 IP relative to H3): Replicate 2; for H3K4me3 ChIP-qPCR 2^-dCq (IP-Input): H3K4me3 antibody relative to H3; for <Cq>: mean of two wells, Antibody H3K4me3, Plasmid PRDM9WT, Figure 7 Replicate 2
Protocol: ChIP-qPCR assays were then conducted on known PRDM9 binding loci[26]. Ectopic expression of PRDM9^WT increased trimethylation of H3K4 (H3K4me3) at previously described PRDM9-specific intragenic and intergenic regions[26] (Fig. 7; Supplementary Fig. 12). […] The observed increases in H3K4me3 levels at intragenic and intergenic regions are therefore due directly to PRDM9 PR domain-dependent methylation activity, rather than through recruitment of other H3K4 methyltransferases or other indirect mechanisms.
ChIP qPCR analyses of H3K4me3 methylation levels of known PRDM9-bound loci and control loci. […] Concentrations used (µM) are indicated below each plot. (a–d) represent reported loci of PRDM9 methylation; (e, f) are transcriptional start sites (TSSs) which are not known loci of PRDM9 methylation. Data are normalized to total H3 and are presented as the mean ± upper and lower limits from two replicates. Representative plots of two independent experiments are shown in this figure. The coordinates and the genomic features associated with the assayed loci are indicated above each plot. Left Tailed Student's t-tests were performed by comparing DMSO (0 µM) treated cells to compound treated cells that have been transfected with the same plasmids. *p-value < 0.05 and **p-value < 0.01. Note that here we show a representative of two independent experiments (mean ± s.d of technical replicates) for our ChIP-qPCR experiments. Data obtained using this technique are inherently noisy due to stochastic differences in gene activity/histone positioning. Data are thus typically presented as representative rather than averaged. Source data are provided as a Source Data file.
HEK293T cells were transfected with 37.5 μg empty pcDNA3.1(+) vector (Invitrogen), or the same vector expressing either wild-type PRDM9 (PRDM9^WT) or a catalytically dead PRDM9 mutant (PRDM9^Mut) and 75 μL of Lipofectamine 2000 (Invitrogen) in 6 mL of Opti-MEM (GIBCO) for 48 h. […] ChIP assays were then performed as previously described. Briefly, cells were fixed in 1% formaldehyde and the fixation reaction was quenched in a final concentration of 0.1 M glycine. Cell pellets were first lysed in LB1 (50 mM HEPES-KOH pH 7.5, 140 mM NaCl, 1 mM EDTA, 10% Glycerol, 0.5% Igepal, 0.25% TritonX), washed once in LB2 Buffer (10 mM Tris-HCl pH 8, 200 mM NaCl, 1 mM EDTA, 0.5 mM EGTA) and finally sonicated in LB3 buffer (10 mM Tris-HCl pH 8, 100 mM NaCl, 1 mM EDTA, 0.5 mM EGTA, 0.1% Sodium deoxycholate, 0.5% N-laurosylsarcosine) using a bioruptor (Diagenode). Thereafter, 50 μg of chromatin was subjected to ChIP using the following antibodies purchased from Abcam: α-H3K4me3 (1:200, ab8580, lot:GR3207339-1) and α-H3 (1:250, ab1791, lot:GR300978-4). After extensive washing in RIPA wash buffer (50 mM HEPES-KOH pH 7.6, 100 mM LiCl, 1 mM EDTA, 1% Igepal, 0.7% Sodium Deoxycholate), DNA was eluted from beads. The eluted DNA was treated with RNase A and Proteinase K and purified using the QIAGEN PCR purification kit. qPCR was then carried out targeting the indicated loci (Supplementary Table 3). Upper and lower limits were defined by |2^−(dCq±s) − 2^−(∆Cq)|, where s = √((Standard deviation of Input Cq)^2 + (Standard deviation of Target Cq)^2). […]
formation. ChIP qPCR analyses of H3K4me3 methylation levels at known PRDM9-bound and control loci. Cells transfected with empty vector (negative control) or vectors overexpressing either wild-type PRDM9 (PRDM9 WT) or catalytically dead PRDM9 (PRDM9 MUT) were […]
Panels a-d represent reported loci of […]
(1 picture or pasted object on this page, not shown here)
PRDM9 methylation; e-f are TSSs which are not known sites of PRDM9 methylation. Data are normalized to total H3 and are presented as the mean ± upper and lower limits from two […]

How did the “H3K4me3 ChIP-qPCR 2^-dCq (IP-Input)” value (chr2:40281930-40282015 Intragenic (SLC8A1-AS1), Figure 7 C, PRDM9WT, Drug Conc. 10) turn out when COc1cc(OC)cc(-c2noc(N3CCN(C)C4(CCN(c5ccnc(C)c5)CC4)C3)n2)c1 [MRK-740] was run?
The value was 2.181.

And the “2^-dCq (H3K4me3 IP relative to H3)” value (chr2:40281930-40282015 Intragenic (SLC8A1-AS1), Empty Vector, Drug Conc. 5, Figure S12 C)?
The value was 0.9795.

What about the “2^-dCq (H3K4me3 IP relative to H3)” value (chr2:40281930-40282015 Intragenic (SLC8A1-AS1), PRDM9MUT, Drug Conc. 5, Figure S12 C) of the same compound?
Its value is 0.2048.

What about the “2^-dCq (H3K4me3 IP relative to H3)” value (chr2:40281930-40282015 Intragenic (SLC8A1-AS1), PRDM9WT, Drug Conc. 5, Figure S12 C) of the same compound?
Its value is 5.934.

What about the “H3K4me3 ChIP-qPCR 2^-dCq (IP-Input)” value (chr2:128811847-128811944 (Intergenic), Figure 7 A, Empty Vector, Drug Conc. 2.5) of the same compound?
Its value is 1.167.

And the “H3K4me3 ChIP-qPCR 2^-dCq (IP-Input)” value (chr2:128811847-128811944 (Intergenic), Figure 7 A, Empty Vector, Drug Conc. 5)?
Its value is 1.563.

And the “H3K4me3 ChIP-qPCR 2^-dCq (IP-Input)” value (chr2:128811847-128811944 (Intergenic), Figure 7 A, Empty Vector, Drug Conc. 10)?
Its value is 1.267.

And the “H3K4me3 ChIP-qPCR 2^-dCq (IP-Input)” value (chr2:128811847-128811944 (Intergenic), Figure 7 A, PRDM9WT, Drug Conc. 2.5)?
The value was 4.007.

What about the “H3K4me3 ChIP-qPCR 2^-dCq (IP-Input)” value (chr2:128811847-128811944 (Intergenic), Figure 7 A, PRDM9WT, Drug Conc. 5) of the same compound?
The value was 4.852.

What about the “H3K4me3 ChIP-qPCR 2^-dCq (IP-Input)” value (chr2:128811847-128811944 (Intergenic), Figure 7 A, PRDM9WT, Drug Conc. 10) of the same compound?
Its value is 1.932.

What about the “2^-dCq (H3K4me3 IP relative to H3)” value (chr2:128811847-128811944 (Intergenic), Empty Vector, Drug Conc. 5, Figure S12 A) of the same compound?
The value was 1.563.

And the “2^-dCq (H3K4me3 IP relative to H3)” value (chr2:128811847-128811944 (Intergenic), PRDM9MUT, Drug Conc. 5, Figure S12 A)?
The value was 0.3928.

And the “2^-dCq (H3K4me3 IP relative to H3)” value (chr2:128811847-128811944 (Intergenic), PRDM9WT, Drug Conc. 5, Figure S12 A)?
Its value is 4.852.

And the “2^-dCq (H3K4me3 IP relative to H3)” value (chr3:165514798-165514911 Intragenic (BCHE), Empty Vector, Drug Conc. 5, Figure S12 D)?
The value was 0.9187.

What about the “2^-dCq (H3K4me3 IP relative to H3)” value (chr3:165514798-165514911 Intragenic (BCHE), PRDM9MUT, Drug Conc. 5, Figure S12 D) of the same compound?
The value was 0.2392.

What about the “2^-dCq (H3K4me3 IP relative to H3)” value (chr3:165514798-165514911 Intragenic (BCHE), PRDM9WT, Drug Conc. 5, Figure S12 D) of the same compound?
The value was 7.878.

And the “H3K4me3 ChIP-qPCR 2^-dCq (IP-Input)” value (chr8:49932778-49932856 (Intergenic), Figure 7 B, Empty Vector, Drug Conc. 2.5)?
The value was 0.8281.

And the “H3K4me3 ChIP-qPCR 2^-dCq (IP-Input)” value (chr8:49932778-49932856 (Intergenic), Figure 7 B, Empty Vector, Drug Conc. 5)?
The value was 1.029.

What about the “H3K4me3 ChIP-qPCR 2^-dCq (IP-Input)” value (chr8:49932778-49932856 (Intergenic), Figure 7 B, Empty Vector, Drug Conc. 10) of the same compound?
Its value is 0.9528.

And the “H3K4me3 ChIP-qPCR 2^-dCq (IP-Input)” value (chr8:49932778-49932856 (Intergenic), Figure 7 B, PRDM9WT, Drug Conc. 2.5)?
The value was 8.6274.

What about the “H3K4me3 ChIP-qPCR 2^-dCq (IP-Input)” value (chr8:49932778-49932856 (Intergenic), Figure 7 B, PRDM9WT, Drug Conc. 5) of the same compound?
The value was 4.182.

What about the “H3K4me3 ChIP-qPCR 2^-dCq (IP-Input)” value (chr8:49932778-49932856 (Intergenic), Figure 7 B, PRDM9WT, Drug Conc. 10) of the same compound?
Its value is 1.779.

And the “2^-dCq (H3K4me3 IP relative to H3)” value (chr8:49932778-49932856 (Intergenic), Empty Vector, Drug Conc. 5, Figure S12 B)?
Its value is 1.029.

And the “2^-dCq (H3K4me3 IP relative to H3)” value (chr8:49932778-49932856 (Intergenic), PRDM9MUT, Drug Conc. 5, Figure S12 B)?
The value was 0.2948.

And the “2^-dCq (H3K4me3 IP relative to H3)” value (chr8:49932778-49932856 (Intergenic), PRDM9WT, Drug Conc. 5, Figure S12 B)?
The value was 4.182.

What about the “2^-dCq (H3K4me3 IP relative to H3)” value (chr12:6643945-6644023 TSS (GAPDH), Empty Vector, Drug Conc. 5, Figure S12 E) of the same compound?
Its value is 83.0384.

What about the “2^-dCq (H3K4me3 IP relative to H3)” value (chr12:6643945-6644023 TSS (GAPDH), PRDM9MUT, Drug Conc. 5, Figure S12 E) of the same compound?
The value was 72.3311.

And the “2^-dCq (H3K4me3 IP relative to H3)” value (chr12:6643945-6644023 TSS (GAPDH), PRDM9WT, Drug Conc. 5, Figure S12 E)?
Its value is 130.72.

And the “2^-dCq (H3K4me3 IP relative to H3)” value (chr19:8510167-8510261 TSS (HNRNPM), Empty Vector, Drug Conc. 5, Figure S12 F)?
The value was 107.435.

And the “2^-dCq (H3K4me3 IP relative to H3)” value (chr19:8510167-8510261 TSS (HNRNPM), PRDM9MUT, Drug Conc. 5, Figure S12 F)?
Its value is 76.5131.

And the “2^-dCq (H3K4me3 IP relative to H3)” value (chr19:8510167-8510261 TSS (HNRNPM), PRDM9WT, Drug Conc. 5, Figure S12 F)?
The value was 143.684.

What about the “<Cq>” value (Drug Conc. 2.5) of the same compound?
Its value is 20.8229.

And the “<Cq>” value (Drug Conc. 5)?
Its value is 20.8538.

And the “<Cq>” value (Drug Conc. 10)?
Its value is 21.2288.
